≈ marks a conversion by molar mass, not a printed value.
Key:
CEM-SS = assay: Cytotoxicity against human CEM-SS cells; format: cell-based
[1] = system: Human immunodeficiency virus; assay: Antiviral activity against HIV infected in human CEM-SS cells; format: functional, organism-based; conditions: Human immunodeficiency virus 1, CEM-SS

SMILES	IC50 (CEM-SS) [µg/mL]	EC50 [1] [µg/mL]
Oc1ccc([C@H]2c3c(O)cc(O)c(O)c3-c3c(-c4ccc(O)c(O)c4)oc4cc(O)cc(c34)[C@@H]2O)cc1 [MALIBATOL B]	21 (≈ 42 µM)	
Oc1ccc([C@H]2c3c(O)cc(O)cc3[C@@H]3c4c(cc(O)cc4[C@H]2O)O[C@H]3c2ccc(O)cc2)cc1 [BALANOCARPOL]		20 (≈ 42.5 µM)
Oc1ccc([C@H]2c3c(O)cc(O)cc3[C@@H]3c4c(cc(O)cc4[C@]2(O)[C@@]2(O)c4cc(O)cc5c4[C@@H](c4cc(O)cc(O)c4[C@@H]2c2ccc(O)cc2)[C@H](c2ccc(O)cc2)O5)O[C@H]3c2ccc(O)cc2)cc1 [DIBALANOCARPOL]		46 (≈ 49 µM)
Oc1ccc(-c2oc3cc(O)cc4c3c2-c2cc(O)cc(O)c2[C@H](c2ccc(O)cc2)[C@H]4O)cc1 [MALIBATOL A]	13 (≈ 27.8 µM)	

Reference: ChEMBL document CHEMBL1141735, “HIV-inhibitory and cytotoxic oligostilbenes from the leaves of Hopea malibato” (J Nat Prod, 1998)
